Series [1] has as its system Bacillus cereus. Briefly: Rapid liquid phase drug sensitivity test, enrichment rate by real-time PCR (e-DNAP, non-display method). Particulars: 10 μg/mL; four hours after culture; enrichment rate without antibiotic agent defined as 100%. The series is classed as cell-based. How it is done:
(§1) In current drug sensitivity tests, it generally takes several days to obtain results. However, when the highly sensitive quantification method in accordance with the present invention is applied, results can be obtained in only four to six hours. […] Accordingly, a sensitive test must be started once culture was carried out, so that it takes at least one day to obtain a result. An equal amount of each sample (for example, blood of septicemia) was infused into a liquid medium (BHI: Brain Heart Infusion), each sample medium was collected before culture, two hours after the culture, and four hours after the culture under the condition in which an antibiotic agent was added or not added, cells were subjected to centrifugation and pelletizing so as to obtain DNA, respectively. Furthermore, it is desirable that extraction of DNA is carried out by using an automatic nucleic acid extraction device. A real-time PCR reagent for detecting bacteria, conditions and the primer constitution were the same as in Example 2. When calculation is carried out when the quantification result before culture is defined as 0 and the quantification result two hours after and four hours after culture in which an antibiotic agent was not added is respectively defined as 100 (an enrichment rate when an antibiotic agent was not added is defined as 100%), the enrichment rate was calculated two hours after and four hours after the culture in which an antibiotic agent was added. For example, the amount of bacteria/fungi before culture is […], the amount of bacteria two hours after culture in which an antibiotic agent is not added is […], and the amount two hours after culture in which an antibiotic agent is added is […], the enrichment rate two hours after an antibiotic agent is added can be calculated by the following formula: Enrichment rate two hours after an antibiotic agent is added=[…])×100 (%) Alternatively, instead of comparing the enrichment rates, the amounts […] be compared directly. […]
Background: Quantitative PCR measures a nucleic acid by following its amplification.

The test system of series [2] is bacterial 16S rRNA-derived gene. As to the kind of experiment: Amplification curve and melting curve analysis by real-time PCR (contamination of non-specific nucleic acid). The note with it: real-time PCR 60 cycles; template not added. Also on record: species or system Escherichia coli. As to the method:
In order to investigate contamination of non-specific nucleic acid in the above-mentioned thermostable DNA polymerase preparations, analyses of an amplification curve and a melting curve were carried out by using real-time PCR. FIGS. 5(A) and FIG. 5(B) show analysis of amplification curves. FIGS. 6(A) and FIG. 6(B) show analysis of melting curves. Furthermore, FIG. 5(A) and FIG. 6(A) are graphs showing analysis carried out by using thermostable DNA polymerase preparation produced by using AmpliTaq Gold LD as a host. FIG. 5(B) and FIG. 6(B) are graphs showing analysis carried out by using thermostable DNA polymerase preparation produced by using S. cerevisiae as a host. Solid lines show a case in which Escherichia coli was added as a template, and broken lines show a case in which a template was not added. As the real-time PCR reagent, ×10 Buffer was obtained by adding 10 μl of ultrapure water into a 1b tube of LightCycler FastStart DNA Master SYBR GreenI (Roche). In this tube, dNTPs and SYBR GreenI in addition to a buffer reagent optimized for the Taq DNA polymerase are contained. […]

Series [3] has as its system Staphylococcus epidermidis. Briefly: Rapid liquid phase drug sensitivity test, bacteria quantified by real-time PCR (e-DNAP, non-display method). The series is classed as cell-based. Particulars: 10 μg/mL; two hours and four hours after culture. How it is done: as §1, with “An equal amount of each sample (for example, blood of septicemia) was infused into a liquid medium (BHI: Brain Heart Infusion), each sample medium was collected before culture, two hours after the culture, and four hours after the culture under the condition in which an antibiotic agent was added or not added, cells were subjected to centrifugation and pelletizing so as to obtain DNA, respectively. Furthermore, it is desirable that extraction of DNA is carried out by using an automatic nucleic acid extraction device. A real-time PCR reagent for detecting bacteria, conditions and the primer constitution were the same as in Example 2.” left out

Experimental findings from patent publication US9243272B2, “Enzyme preparation containing thermostable DNA polymerase, method for producing same, and method for detecting subject organism to be detected” (HOKKAIDO MITSUI CHEMICALS INC., priority 2009, dated 2016) are described below.

On to `CC1(C)S[C@@H]2[C@H](NC(=O)[C@H](N)c3ccccc3)C(=O)N2[C@H]1C(=O)O` [ampicillin], for which the enrichment rate in series [1] came out at 0%.
“AmpliTaq Gold LD: commercial thermostable DNA polymerase preparation (ABI), produced in bacteria and purified to minimize bacterial DNA”: in series [2], the “contamination of non-specific nucleic acid in amplification curve and melting curve” value is listed as “contamination of non-specific nucleic acid was observed”.
On to gentamicin, for which the “drug sensitivity (comparison of amount of bacteria itself)” value in series [3] is listed as “sensitivity to GM was not observed”.
In series [1], `CC[C@H]1OC(=O)[C@H](C)[C@@H](O[C@H]2C[C@@](C)(OC)[C@@H](O)[C@H](C)O2)[C@H](C)[C@@H](O[C@@H]2O[C@H](C)C[C@H](N(C)C)[C@H]2O)[C@](C)(O)C[C@@H](C)C(=O)[C@H](C)[C@@H](O)[C@]1(C)O` [erythromycin] returned an enrichment rate of 76%. Besides, the “drug sensitivity (comparison of amount of bacteria itself)” value in series [3] is on record as “sensitivity to EM was observed”.
Compound `Cc1nnc(SCC2=C(C(=O)O)N3C(=O)[C@@H](NC(=O)Cn4cnnn4)[C@H]3SC2)s1` [cefazolin] yielded an enrichment rate in series [1] of 16%.
